Laboratory results as given in US20160067162A1, “PHOTOPROTECTIVE COMPOUNDS, COMPOSITIONS INCLUDING SAME AND USES THEREOF” (UNIVERSITE DE RENNES 1, priority 2013, published 2016).

Tests used:
Type in all cases: physicochemical
[1] = UV spectrum measurement in CHCl3 (λmax, molar extinction coefficient); settings: for λmax exp: 10^−4 M in CHCl3; for ε (molar extinction coefficient at the λmax): 10^−4 M in CHCl3, 1 cm cuvette
Experimental: The products are diluted in CHCl3 so as to obtain a solution at 10^−4M. The UV spectra are measured using a Uvikon 931 UV-vis spectrophotometer, Serlabo Technologies, Entraigues sur la Sorgue, France. This UV spectrum makes it possible to determine the molar extinction coefficient (mol^−1 L cm^−1) at the λmax by virtue of the Beer-Lambert law: c=A/l×C;
A=value of the absorbance at the λmax; l=length of the cuvette in cm (l=1);
C=concentration of the solution=1×10^−4 mol/l. The theoretical λmax was determined for certain products by DFT calculation.

[2] = SPF measurement, Protocol I (Rennes): simplified O/W emulsion, UV spectrum 200-400 nm; settings: for λc p.I: critical wavelength; for λc p.I / Colipa UVA-PF p.I, at 10% / SPF p.I, at 10%: protocol I; for Colipa UVA-PF p.I, at 10%: product at 10%; for SPF p.I, at 10%: product at 10% in simplified O/W emulsion; for UVA/UVB: ratio of area under the curve 315-400 nm to 280-315 nm
Experimental: The SPF measurement is carried out according to the following protocol described in Le Dévéhat F., Malargé A., Couteau C., Coiffard L., Legouin B. “Evaluation of a new UV-filter screening method”, 4th symposium of the AFERP “Biodiversity, chimie des substances naturelles et medicaments” [“Biodiversity, chemistry of natural substances and medicaments”] and 3rd Franco-Pakistani symposium, Besançon (France), Jul. 16-17-18, 2010. A solution of each product dissolved in dimethyl sulfoxide is incorporated at 10% into a simplified emulsion of oil-in-water (O/W) type consisting of liquid paraffin, water and SDS at 10%, the whole mixture taken up in absolute ethanol. The UV spectrum of each solution is recorded between 200 nm and 400 nm in a 10 mm quartz cell on a Uvikon 931 UV-vis spectrophotometer and measured in comparison with a control 10% emulsion solution.
(§1) The SPF and UVA-PF values are, for the two protocols, calculated from the following equations: […]
(§2) where Eλ is the erythemogenic effect of the radiation at the wavelength λ; Sλ is the spectral solar irradiance at the wavelength λ and Tλ is the spectral transmittance of the product at the wavelength λ, λc is the critical wavelength which corresponds to the wavelength at which 90% of the area under the curve (AUC) is integrated between 290 and 400 nm. The UVA/UVB ratio corresponds more specifically to the ratio of the area under the curve between 315 and 400 nm to the area under the curve between 280 and 315 nm.

[3] = SPF measurement, Protocol II (Nantes): O/W emulsion on PMMA plate, transmission with integrating sphere; settings: for λc (p.II): critical wavelength; for SPF (p.II, at 1%): product at 1% in O/W emulsion, PMMA plate, 290-400 nm; for Colipa UVA-PF (p.II, at 1%): product at 1%, 320-400 nm
Experimental: The SPF measurement is carried out according to the protocol described in Lohézic-Le Dévéhat F., Legouin B., Couteau C., Boustie J., Coiffard L. “Lichenic extracts and metabolites as UV filters” Journal of Photochemistry and Photobiology B: Biology 120 (2013) 17-28:
An emulsion having the following formulation is used: […]
The two phases are prepared separately. The hydrophilic phase is then added, with stirring, to the lipophilic phase. The products are finally incorporated at 1% into this O/W emulsion. 30 mg of the whole mixture are distributed over the entire surface area (25 cm^2) of a PMMA plate using a finger store. After spreading, 15 mg remain on the finger store. Three plates are prepared per product and nine measurements are carried out. The transmission measurements between 290 and 400 nm for the SPF and between 320 and 400 nm for the UVA-PF are carried out using a spectrophotometer equipped with an integrating sphere (UV Transmittance analyzer UV1000S, Labsphere, North Sutton, US).
as §1, §2

Row | Molecule | λmax exp [1] | ε (molar extinction coefficient at the λmax) [1] | λc p.I [2] | Colipa UVA-PF p.I, at 10% [2] | SPF p.I, at 10% [2] | UVA/UVB [2] | λc (p.II) [3] | SPF (p.II, at 1%) [3] | Colipa UVA-PF (p.II, at 1%) [3] | Colipa UVA-PF p.I, at 10% ([2]; listed as oxybenzone)
1 | CC1CC(OC(=O)c2ccccc2O)CC(C)(C)C1 (stereo not shown) [Homosalate, reference compound] |  |  | 323 ± 1 nm | 1.08 ± 0.00 | 1.91 ± 0.04 | 0.17 ± 0.00 |  |  |  | 
2 | COc1ccc(C2=CC(=O)CCN2)cc1 [Compound 3, 6-(4-methoxyphenyl)-2,3-dihydropyridin-4(1H)-one] | 330 nm | 16259 L/mol/cm | 362 nm | 9.16 ± 0.10 | 4.30 ± 0.12 | 2.85 ± 0.01 | 384 nm | 1.25 ± 0.04 | 1.33 ± 0.04 | 
3 | CC(C)(C)OC(=O)NC1=C(c2ccccc2)N(C(=O)OC(C)(C)C)CCC1=O [Compound 6, tert-butyl 5-(tert-butoxycarbonylamino)-4-oxo-6-phenyl-3,4-dihydropyridine-1(2H)-carboxylate] | 322 nm | 11206 L/mol/cm | 351 nm | 1.56 ± 0.04 | 2.04 ± 0.09 | 1.24 ± 0.0 |  |  |  | 
4 | CN(C)c1ccc(C2=CC(=O)CCN2)cc1 [Compound 4, 6-(4-(dimethylamino)phenyl)-2,3-dihydropyridin-4(1H)-one] | 355 nm | 26286 L/mol/cm | 361 nm | 42.67 ± 1.16 | 9.24 ± 0.18 | 5.19 ± 0.01 | 387 nm | 1.72 ± 0.08 | 1.88 ± 0.09 | 
5 | COc1ccc(C(=O)c2ccccc2)c(O)c1 [Oxybenzone, reference compound] |  |  | 349 ± 1 nm | 2.63 ± 0.01 | 5.27 ± 0.25 | 0.98 ± 0.00 |  |  |  | 2.63
6 | CCCCC(CC)COC(=O)c1ccc(Nc2nc(Nc3ccc(C(=O)NC(C)(C)C)cc3)nc(Nc3ccc(C(=O)OCC(CC)CCCC)cc3)n2)cc1 (stereo not shown) [Diethylhexyl Butamido Triazone, reference compound] |  |  |  | 1.27 ± 0.01 | 10.10 ± 0.02 | 0.12 ± 0.01 |  |  |  | 
7 | O=C1C=C(c2ccc(Cl)cc2)NCC1 [Compound 1, 6-(4-chlorophenyl)-2,3-dihydropyridin-4(1H)-one] | 328 nm | 8131 L/mol/cm | 366 nm | 3.97 ± 0.15 | 2.27 ± 0.06 | 4.78 ± 0.57 |  |  |  | 
8 | PEG-25 PABA [reference compound] |  |  | 324 ± 1 nm | 1.11 ± 0.01 | 2.04 ± 0.05 | 0.19 ± 0.01 |  |  |  | 

Continued, in another order:

Row | λmax exp [1] | ε (molar extinction coefficient at the λmax) [1] | Molecule | λc p.I [2] | Colipa UVA-PF p.I, at 10% [2] | SPF p.I, at 10% [2] | UVA/UVB [2] | λc (p.II) [3] | SPF (p.II, at 1%) [3] | Colipa UVA-PF (p.II, at 1%) [3] | Colipa UVA-PF p.I, at 10% ([2]; listed as oxybenzone)
9 | 308 nm | 31339 L/mol/cm | CCOC(=O)/C=C/C1=C(c2ccccc2)N[C@@H](COCc2ccccc2)CC1=O [Compound 9, (R,E)-ethyl 3-(6-(benzyloxymethyl)-4-oxo-2-phenyl-1,4,5,6-tetrahydropyridin-3-yl)acrylate] | 353 nm | 3.54 | 5.40 ± 0.43 | 1.84 |  |  |  | 
10 | 337 nm | 15578 L/mol/cm | COc1ccc2cc(C3=CC(=O)CCN3)ccc2c1 [Compound 15, 6-(6-methoxynaphthalen-2-yl)-2,3-dihydropyridin-4(1H)-one] | 368 nm | 7.41 ± 1.34 | 5.89 ± 0.99 | 2.65 ± 0.01 |  |  |  | 
11 | 310 nm | 18622 L/mol/cm | COc1cc(OC)cc(C2=CC(=O)CCN2C(=O)OC(C)(C)C)c1 [Compound 10, tert-butyl 6-(3,5-dimethoxyphenyl)-4-oxo-3,4-dihydropyridine-1(2H)-carboxylate] | 334 nm | 1.88 ± 0.01 | 5.54 ± 0.66 | 0.49 ± 0.15 |  |  |  | 
12 | 331 nm | 14280 L/mol/cm | COc1ccc2cc(C3=CC(=O)CCN3C(=O)OC(C)(C)C)ccc2c1 [Compound 11, tert-butyl 6-(6-methoxynaphthalen-2-yl)-4-oxo-3,4-dihydropyridine-1(2H)-carboxylate] | 362 nm | 4.70 ± 0.42 | 5.50 ± 0.62 | 1.92 ± 0.01 |  |  |  | 
13 | 316 nm | 20575 L/mol/cm | CC(C)(C)OC(=O)N1CCC(=O)C=C1c1ccc(Oc2ccccc2)cc1 [Compound 12, tert-butyl 4-oxo-6-(4-phenoxyphenyl)-3,4-dihydropyridine-1(2H)-carboxylate] | 340 nm | 1.98 ± 0.05 | 5.31 ± 0.45 | 0.71 ± 0.01 |  |  |  | 
14 | 303 nm | 12361 L/mol/cm | CCCC1=CC(=O)CCN1 [Compound 5, 6-propyl-2,3-dihydropyridin-4(1H)-one] | 328 nm | 1.66 ± 0.003 | 12.17 ± 0.09 | 0.36 ± 0.00 | 335 nm | 11.18 ± 1.03 | 2.58 ± 0.07 | 
15 | 306 nm | 16596 L/mol/cm | CCOC(=O)/C=C/C1=C(c2ccccc2)NCCC1=O [Compound 8, (E)-ethyl 3-(4-oxo-2-phenyl-1,4,5,6-tetrahydropyridin-3-yl)acrylate] | 378 nm | 5.38 ± 0.16 | 6.73 ± 0.27 | 2.22 ± 0.01 |  |  |  | 
16 | 316 nm | 20260 L/mol/cm | CCCC1=C(/C=C/C(=O)OCC)C(=O)C[C@H](Cc2ccccc2)N1 [Compound 17, (S,E)-ethyl 3-(6-benzyl-4-oxo-2-propyl-1,4,5,6-tetrahydropyridin-3-yl)acrylate] | 353 nm | 4.88 ± 0.11 | 13.28 ± 0.66 | 1.46 ± 0.01 |  |  |  | 
17 | 355 nm | 8618 L/mol/cm | CN1C=C(NC(=O)OC(C)(C)C)C(=O)CC1 [Compound 18, tert-butyl 1-methyl-4-oxo-1,4,5,6-tetrahydropyridin-3-ylcarbamate] | 368 nm | 3.49 ± 0.17 | 2.67 ± 0.08 | 3.05 ± 0.04 |  |  |  | 
18 | 333 nm | 13110 L/mol/cm | COc1ccccc1C1=CC(=O)CCN1 [Compound 16, 6-(2-methoxyphenyl)-2,3-dihydropyridin-4(1H)-one] | 358 nm | 4.96 ± 0.18 | 5.94 ± 0.34 | 2.12 |  |  |  | 
19 | 343 nm | 15426 L/mol/cm | CCOC(=O)/C=C/C1=C(c2ccccc2)N(C(=O)OC(C)(C)C)CCC1=O [Compound 7, (E)-tert-butyl 5-(3-ethoxy-3-oxoprop-1-enyl)-4-oxo-6-phenyl-3,4-dihydropyridine-1(2H)-carboxylate] | 375 nm | 2.92 ± 0.17 | 1.61 ± 0.13 | 6.36 ± 1.16 |  |  |  | 
